# Tested on: Res-Omm1.3 and Res-Mel270 cells
# Experiment: Cell viability assay (CCK8), MEKi-resistant cells
# Format: cell-based
# Description: Cells were plated in 96-well plates, and treated with the indicated concentrations of drugs. […] Cell viability is expressed as a percentage of untreated cells.
# To explore mechanisms of drug resistance, MEKi-resistant GNAQ-mutant cell lines were generated by exposing the cells to increasing concentrations of selumetinib for at least four weeks and routinely grown in 1 μM selumetinib, without clonal selection. After continuous exposure, the cell lines Res-Omm1.3 and Res-Mel270 became resistant to selumetinib compared to their parental cells Omm1.3 and Mel270 (FIG. 2A, B).
structure (smiles),measurement,setting,value
Cn1cnc2c(F)c(Nc3ccc(Br)cc3Cl)c(C(=O)NOCCO)cc21 [selumetinib],IC50 of resistant cells relative to their sensitive counterparts,"Res-Omm1.3 and Res-Mel270 vs parental Omm1.3 and Mel270, cell viability",10 fold
NC1(c2ccc(-c3nc4ccn5c(=O)[nH]nc5c4cc3-c3ccccc3)cc2)CCC1 [MK2206],sensitivity to AKTi when combined with MEKi,"MK2206 with selumetinib, FIG. 6",sustained
same,cell viability with AKTi compared to the parental lines,"increasing concentrations of MK2206, FIG. 6",Decreased viability
O=C(NOC[C@H](O)CO)c1ccc(F)c(F)c1Nc1ccc(I)cc1F [PD0325901],cell viability: resistance to MEK inhibitor compared to parental cells,"increasing doses, 4 days, FIG. 2A, B and FIG. 7",cross resistance

# — patent US10400285B2, “DDX43 as a biomarker of resistance to MEK1/2 inhibitors” (Memorial Sloan-Kettering Cancer Center, priority 2013, dated 2019)
